# Assay results taken from patent publication US20060111305A1, “Metabolites of certain [1,4]diazepino[6,7,1-ij]quinoline derivatives and methods of preparation and use thereof” (Wyeth, priority 2004, published 2006).
# Several values for one entry are separate records, joined by “and”; a condition that tells them apart may be missing. Equal entries are not always repeated.
# Key:
# [1] = dogs; cited from earlier work
# [2] = biological target: T1, 5-HT2C (Homo sapiens, UniProt P28335); details: see WO03/091250 and US2004/0009970; cited from earlier work
# T1 sequence (P28335 33-458): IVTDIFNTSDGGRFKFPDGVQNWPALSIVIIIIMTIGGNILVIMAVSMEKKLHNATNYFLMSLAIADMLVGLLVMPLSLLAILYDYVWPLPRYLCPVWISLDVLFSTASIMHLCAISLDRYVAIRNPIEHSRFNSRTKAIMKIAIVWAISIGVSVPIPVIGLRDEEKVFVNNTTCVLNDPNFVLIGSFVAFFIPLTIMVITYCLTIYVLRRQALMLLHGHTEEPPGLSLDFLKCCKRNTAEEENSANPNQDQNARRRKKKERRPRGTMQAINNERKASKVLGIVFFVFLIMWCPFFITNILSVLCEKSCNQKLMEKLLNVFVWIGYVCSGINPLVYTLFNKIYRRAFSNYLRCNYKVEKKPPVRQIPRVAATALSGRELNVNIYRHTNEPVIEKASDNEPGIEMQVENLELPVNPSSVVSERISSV
# [3] = dog, enteric-coated capsule, mass balance study; cited from earlier work
# [4] = Incubation of [14C]DCDQ in dog fecal homogenate (stability); type: in vitro ADME; details: 37° C. for 24 hours
# Procedure: An average of 70.2% of the fecal radioactivity was extracted, while an average of 88.2% of the radioactivity was extracted from incubations of [^14C]DCDQ in blank fecal homogenate. In fecal extracts, DCDQ was major radioactive component, representing 54.4% to 96.7% of the total radioactivity. The metabolites detected in feces included hydroxy DCDQ (M2, M3 and M19), a keto DCDQ ([…]) and an uncharacterized peak (M20). The most abundant metabolite […] represented up to 16.4% of the total radioactivity in fecal extracts. The glucuronide of hydroxy DCDQ (M9) and the carbamoyl glucuronide of DCDQ (M6) were not detected in feces.
# [5] = rats, previous mass balance study, oral dose; cited from earlier work
# [6] = Dog blood and plasma radioactivity concentrations after single 15 mg/kg oral enteric-coated capsule of [14C]DCDQ; type: in vivo, beagle dogs; details: 15 mg/kg oral capsule; for Blood concentration of radioactivity, individual dogs 1-4 / Plasma concentration of radioactivity, individual dogs 1-4: 15 mg/kg
# Procedure: About 11 mg of [^14C]DCDQ hydrochloride and 940 mg of non-labeled DCDQ hydrochloride were dissolved in methanol and then evaporated under a nitrogen stream to dryness. Capsules (#2) were filled with accurate amounts (126.7-138.1 mg) of the mixed drug substance according to animal weights. The filled gelatin capsules were then enteric-coated manually. Four male beagle dogs, weighing from 7.6 to 9.8 kg at the time of dosing, were from an in-house colony. Each dog was given one enteric-coated capsule containing [^14C]DCDQ as the hydrochloride salt. Animals were fed two hours prior to dosing and provided Purina dog chow and water ad libitum, and were housed individually in metabolic cages. Blood samples were collected from the jugular vein at 2, 4, 8, 24 and 48 hour after dose administration into tubes containing potassium EDTA as the anticoagulant and then placed on ice. Aliquots of 50 μL were removed for combustion and determination of radioactivity content. Plasma was immediately obtained from the remaining blood by centrifugation at 4° C. Urine samples were collected into tubes on dry ice at intervals of 0-8, 8-24 and 24-48 hour post-dose. Fecal samples were collected at intervals of 0-8, 8-24 and 24-48 hour post-dose at room temperature, and were homogenized. The biological specimens were stored at approximately −70° C. until analysis. Aliquots of 50 μL of plasma and 100-200 μL of urine were analyzed for radioactivity concentrations. Radioactivity determinations of dose, plasma, and urine were made with a Tri-Carb Model 3100 TR/LL LSC using 5-10 mL of Ultima Gold as the scintillation fluid. Feces were weighed and homogenized in water at a volume-to-weight ratio of about 5:1. Aliquots of blood (200 μL) and fecal homogenates (0.25-0.53 gram) were placed on Combusto-cones with Combusto-pads and combusted. A model 307 Tri-Carb sample oxidizer, equipped with an Oximate-80 robotic automatic sampler (Perkin Elmer), was used for combustion of blood and fecal samples. The liberated ^14CO2 was trapped with Carbo-Sorb E carbon dioxide absorber, mixed with PermaFluor® E+ liquid scintillation cocktail, and counted on a Tri-Carb Model 3100 TR/LL liquid scintillation counter (Perkin Elmer). The efficiency of combustion was 98.9%.
smiles,measurement,setting,value
"c1cc2c3c(c1)[C@H]1CCC[C@H]1CN3CCNC2 [DCDQ, (9aR,12aS)-4,5,6,7,9,9a,10,11,12,12a-decahydro-cyclopenta[c][1,4]diazepine[6,7,1-ij]quinoline, reference compound]",oral bioavailability,[1],approximately 25.4%
same,5-HT2C agonist activity,[2],potent 5-HT2C agonist
c1cc2c3c(c1)[C@H]1CCC[C@H]1CN3CCNC2 [[^14C]DCDQ],dose recovered in urine,[3],32.7%
same,degradation in fecal homogenate,[4],no obvious degradation
same,dosed radioactivity recovered in urine,[5],64.3%
same,"Blood concentration of radioactivity, Mean ± SD",[6]; 2 hr,262 ± 391 ng equivalents/mL
same,"Plasma concentration of radioactivity, Mean ± SD",[6]; 2 hr,422 ± 573 ng equivalents/mL
same,"Blood concentration of radioactivity, individual dogs 1-4",[6]; 2 hr,161 ng equivalents/mL and 840 ng equivalents/mL and 48.6 ng equivalents/mL and 0.00 ng equivalents/mL
same,"Plasma concentration of radioactivity, individual dogs 1-4",[6]; 2 hr,360 ng equivalents/mL and 1250 ng equivalents/mL and 74.4 ng equivalents/mL and 4.13 ng equivalents/mL
same,"Blood concentration of radioactivity, Mean ± SD",[6]; 4 hr,372 ± 505 ng equivalents/mL
same,"Plasma concentration of radioactivity, Mean ± SD",[6]; 4 hr,564 ± 748 ng equivalents/mL
same,"Blood concentration of radioactivity, individual dogs 1-4",[6]; 4 hr,319 ng equivalents/mL and 1100 ng equivalents/mL and 66.7 ng equivalents/mL and 0.90 ng equivalents/mL
same,"Plasma concentration of radioactivity, individual dogs 1-4",[6]; 4 hr,500 ng equivalents/mL and 1640 ng equivalents/mL and 112 ng equivalents/mL and 4.13 ng equivalents/mL
same,"Blood concentration of radioactivity, Mean ± SD",[6]; 8 hr,347 ± 378 ng equivalents/mL
same,"Plasma concentration of radioactivity, Mean ± SD",[6]; 8 hr,528 ± 566 ng equivalents/mL
same,"Blood concentration of radioactivity, individual dogs 1-4",[6]; 8 hr,331 ng equivalents/mL and 878 ng equivalents/mL and 176 ng equivalents/mL and 5.41 ng equivalents/mL
same,"Plasma concentration of radioactivity, individual dogs 1-4",[6]; 8 hr,541 ng equivalents/mL and 1310 ng equivalents/mL and 256 ng equivalents/mL and 4.13 ng equivalents/mL
same,"Blood concentration of radioactivity, Mean ± SD",[6]; 24 hr,920 ± 341 ng equivalents/mL
same,"Plasma concentration of radioactivity, Mean ± SD",[6]; 24 hr,1340 ± 508 ng equivalents/mL
same,"Blood concentration of radioactivity, individual dogs 1-4",[6]; 24 hr,980 ng equivalents/mL and 782 ng equivalents/mL and 1360 ng equivalents/mL and 556 ng equivalents/mL
same,"Plasma concentration of radioactivity, individual dogs 1-4",[6]; 24 hr,1530 ng equivalents/mL and 1110 ng equivalents/mL and 1940 ng equivalents/mL and 769 ng equivalents/mL
same,"Blood concentration of radioactivity, Mean ± SD",[6]; 48 hr,343 ± 79.9 ng equivalents/mL
same,"Plasma concentration of radioactivity, Mean ± SD",[6]; 48 hr,507 ± 135 ng equivalents/mL
same,"Blood concentration of radioactivity, individual dogs 1-4",[6]; 48 hr,333 ng equivalents/mL and 434 ng equivalents/mL and 364 ng equivalents/mL and 241 ng equivalents/mL
same,"Plasma concentration of radioactivity, individual dogs 1-4",[6]; 48 hr,504 ng equivalents/mL and 669 ng equivalents/mL and 517 ng equivalents/mL and 339 ng equivalents/mL
